Experimental data reported in patent publication US10077289B2, “Cyclosporins modified on the MeBmt sidechain by heterocyclic rings” (priority 2015, dated 2018).
Converted amounts (≈) assume the structure as drawn. Where two headings read alike, the source gives them in different places.

What was measured:
[1] = target: Human recombinant cyclophilin A (Cyp A) (Homo sapiens (Human), UniProt P62937); test: Protease-free PPIase assay
Method: Protease-Free PPIase Assay
The protease-free PPIase assay measures the rate of cis to trans conversion of a peptide substrate catalyzed by the enzyme cyclophilin A. Addition of a cyclophilin A inhibitor (e.g., a test compound) slows the catalyzed rate and a Ki value is obtained.
35 mM HEPES pH 7.8, filtered through a 0.2 μm filter. 50 μM DTT was added prior to use each day and then the buffer was stored on ice.
Human recombinant cyclophilin A (Cyp A) (Sigma C3805) enzyme was diluted to 1 μM with enzyme dilution buffer (20 mM HEPES pH 7.8, 40% glycerol, 50 μM DTT and 1 μM BSA) and stored at −20° C.
Succinimide-Ala-Ala-Pro-Phe-p-nitroanilide (SUC-AAPF-pNA) (from Bachem AG, L-1400), 20 mg/ml prepared in 0.5 M LiCl in trifluoroethanol.
The temperature is monitored by the use of a temperature probe. To prevent UV degradation of test compounds, the light below 290 nm was blocked using a glass slide in the light path. 1.5 ml of the assay buffer was put into a 3 ml quartz cuvette and cooled to 10.0±0.1° C. while stirring (vigorous but not so fast as to produce cavitation). The inhibitor was diluted in 100% DMSO, and then added to the assay to a maximum final concentration of 0.5% DMSO in the assay. A blank spectrum was obtained, then 3 μL of enzyme was added (2 nM final concentration) and then 3 μL substrate (60 μM final concentration) added. The absorbance was measured at 330 nm for 300 s or 500 s for blank runs (NOTE: the substrate must be added in one quick injection and the measurements started immediately to minimize mixing errors).
A first order rate equation was fitted to the absorbance data, for each concentration of inhibitor, to obtain the rate constant (the first 10 to 15 seconds were excluded as mixing causes errors in this portion of curve). The catalytic rate was calculated from the enzymatic rate constant minus the background rate constant. An exponential curve was generated using the catalytic rate constants versus the inhibitor concentration to obtain the Ki value for the inhibitor. The Ki value is indicative of the binding affinity between the test compound and cyclophilin A.

[2] = target: calcineurin/cyclophilin A (Homo sapiens (Human), UniProt P62937+P63098+Q08209); test: Calcineurin Phosphatase (CaN) Assay (+CypA); assay type: biochemical; details: in the presence of Cyp A, 1:1 complex with inhibitor; read-out: Calcineurin Phosphatase (CaN) Assay (+CypA) IC50
Excerpt: Calcineurin Phosphatase (CaN) Assay
The calcineurin phosphatase assay is a means for estimating the immunosuppressive potential of a test compound. Calcineurin is a serine-threonine protein phosphatase that on activation dephosphorylates members of the nuclear factor of activated T cells (NFAT), which are important in T lymphocyte activation.
To investigate the immunosuppressive potential of exemplary compounds of Formula I, which are cyclosporin analogs, their ability to inhibit calcineurin activity was measured in the presence and absence of Cyp A.
The CaN assay kit used is based on a colorimetric assay for measuring calcineurin phosphatase activity, and it is commercially available (Enzo Life Sciences and Calbiochem). Calmodulin is also required for calcineurin activity and RII phosphopeptide is used as an efficient peptide substrate for calcineurin. […] The detection of free phosphate released is based on the classic Malachite green assay.
Enzo Life Sciences CaN Assay Kit: BML-AK804
Malachite Green: BIOMOL Green™ reagent
Calmodulin (Human, recombinant): was thawed on ice, diluted 1:50 with 2× assay buffer, and then stored on ice.
Calcineurin: was thawed quickly, stored on ice immediately, diluted 1:12.5 with 1× assay buffer, and then stored on ice.
R-II Substrate: 915 μL ultrapure water (UPW) was added to the 1.5 mg vial substrate to give a final concentration of 0.75 mM.
Inhibitors: 2.5 mM inhibitor in 100% DMSO.
Cyp A: recombinant human CypA (Sigma C3805), 1 mg/ml; Recombinant 6-His tagged CypA prepared by the University of Edinburgh was also used.
Inhibitor dilutions: inhibitor compounds were diluted in UPW in polypropylene low-binding 96 well plates at 5× the final assay concentration.
Assay Setup: using the half area 96 well plates supplied with the kit, 10 μl UPW was added to duplicate wells to provide the non-inhibited control. 10 μl of the inhibitor or the inhibitor/Cyp A complex was added to the appropriate sample wells. 25 μl of the 2× assay buffer with CaM was added to all wells, then 5 μl of CaN was added to all wells (40 U per well final concentration) except duplicate ‘no calcineurin blank’ wells to which 5 μL 1× assay buffer was added. The assay plate was placed in an oven at 30° C. for 15 minutes to equilibrate to the reaction temperature. The reaction was started by the addition of 10 μl RII-peptide (0.15 mM final concentration). The reaction was allowed to proceed at 30° C. for a time period in which the reaction is linear for about 60 minutes. The reaction was then terminated by adding 100 μl of the Malachite Green reagent. The color was allowed to develop for 15-30 minutes at room temperature before the absorbance at 620 nm was measured using a plate reader (Molecular Devices—SpectraMax M5). The data were analyzed by subtracting ‘no Calcineurin blank’ from all the absorbance readings and plotting the background corrected absorbances against Log10 inhibitor concentration. A sigmoidal-dose response curve was fitted to the data using GraphPad Prism Software.
It exerts its immunosuppressive activity by binding to cyclophilin A to form a complex, which then binds to calcineurin and thereby inhibits calcineurin activity.

[3] = Water Solubility Assay (measured in pH 7.8 buffer); assay type: physicochemical; details: kinetic from dmso stock, 25 °C
Method: Water Solubility Assay (Measured in pH 7.8 Buffer)
The aqueous solubility of a compound of Formula I in buffer (pH 7.8) was measured by recording the onset of precipitation of the compound as a function of increasing concentration. The onset of precipitation, if it occurred, was detected by an increase in absorbance at 650 nm.
Assay Buffer: 35 mM HEPES pH 7.8
Stock solutions of Control and Test Compounds: 10 mM in 100% DMSO.
10 mM stock solutions of control and test compounds were prepared in 100% DMSO.
Assay buffer (247.5 μl) was placed into flat bottomed transparent 96-well plate. For blank samples DMSO (2.5 μl) was added. For test and control samples 2.5 μl of the appropriate DMSO dilution stocks were added to the appropriate well. All test and control compounds were performed in triplicate.
The plates were sealed with adhesive plate seal and shaken at 250 rpm at 25° C. for 18 h on a plate shaker. After incubation the plate seals were taken off and any bubbles observed in wells removed. The plates were read on a SpectraMaxM5 with a 5 s pre-shake at 650 nm. Data files were transferred to the appropriate worksheet and the solubility range of the compounds was calculated from the data. The values shown in the Tables indicate the concentration in μM (micromolar) at which the compound remains in solution.

[4] = read-out: Protease-free PPIase Assay Ki, human recombinant Cyp A, 10 °C
[5] = 35 mM HEPES buffer pH 7.8, aqueous buffer, 35 mM HEPES pH 7.8, 1% DMSO, 18 h, read-out: Water Solubility Assay, concentration at which the compound remains in solution

SMILES	Ki [1, 4] [nM]	IC50 [2] [nM]	solubility at 18 h [3, 5] [µM]	Ki [1] [nM]	solubility at 18 h ([3]; pH 7.8, aqueous buffer) [µM]
CC[C@H]1NC(=O)[C@@H]([C@H](O)[C@H](C)Cc2nccn2Cc2ccccn2)N(C)C(=O)[C@@H](C(C)C)N(C)C(=O)[C@@H](CC(C)C)N(C)C(=O)[C@@H](CC(C)C)N(C)C(=O)[C@H](C)NC(=O)[C@@H](C)NC(=O)[C@@H](CC(C)C)N(C)C(=O)[C@@H](C(C)C)NC(=O)[C@H](CC(C)C)N(C)C(=O)[C@@H](C)N(C)C1=O [Compound 5, [(2S,3R,4R)-3-Hydroxy-4-methyl-2-(methylamino)-5-(1-(pyridin-2-yl-methyl)-1H-imidazol-2-yl)-pentanoic acid]^1 [(R)-methyl-Sar]^3cyclosporin A]	4.1	8600	> 100		
CC[C@H]1NC(=O)[C@@H]([C@H](O)[C@H](C)Cc2nccn2CCCO)N(C)C(=O)[C@@H](C(C)C)N(C)C(=O)[C@@H](CC(C)C)N(C)C(=O)[C@@H](CC(C)C)N(C)C(=O)[C@H](C)NC(=O)[C@@H](C)NC(=O)[C@@H](CC(C)C)N(C)C(=O)[C@@H](C(C)C)NC(=O)[C@H](CC(C)C)N(C)C(=O)[C@@H](C)N(C)C1=O [Compound 6, [(2S,3R,4R)-3-Hydroxy-5-(1-(3-hydroxypropyl)-1H-imidazol-2-yl)-4-methyl-2-(methylamino)pentanoic acid]^1 [(R)-methyl-Sar]^3 cyclosporin A]		4750		5.1	> 100
CC[C@H]1NC(=O)[C@@H]([C@H](O)[C@H](C)Cc2nccn2CCc2cccnc2)N(C)C(=O)[C@@H](C(C)C)N(C)C(=O)[C@@H](CC(C)C)N(C)C(=O)[C@@H](CC(C)C)N(C)C(=O)[C@H](C)NC(=O)[C@@H](C)NC(=O)[C@@H](CC(C)C)N(C)C(=O)[C@@H](C(C)C)NC(=O)[C@H](CC(C)C)N(C)C(=O)[C@@H](C)N(C)C1=O [Compound 7, [(2S,3R,4R)-3-Hydroxy-4-methyl-2-(methylamino) 5-(1-(pyridin-3-yl-ethyl)-1H-imidazol-2-yl)pentanoic acid]^1 [(R)-methyl-Sar]^3 cyclosporin A]	5.6	7850	> 100		
CC[C@H]1NC(=O)[C@@H]([C@H](O)[C@H](C)Cc2nc3ccccc3[nH]2)N(C)C(=O)[C@@H](C(C)C)N(C)C(=O)[C@@H](CC(C)C)N(C)C(=O)[C@@H](CC(C)C)N(C)C(=O)[C@H](C)NC(=O)[C@@H](C)NC(=O)[C@@H](CC(C)C)N(C)C(=O)[C@@H](C(C)C)NC(=O)[C@H](CC(C)C)N(C)C(=O)[C@@H](C)N(C)C1=O [Compound 9, [(2S,3R,4R)-1-(1H-Benzimidazol-2-yl)-3-hydroxy-4-methyl-2-(methylamino)pentanoic acid]^1 [(R)-methyl-Sar]^3 cyclosporin A]		> 10000		2.3	25 to 50 (≈ 32.3 to 64.6 µg/mL)
CC[C@H]1NC(=O)[C@@H]([C@H](O)[C@H](C)CCCc2cccnc2)N(C)C(=O)[C@@H](C(C)C)N(C)C(=O)[C@@H](CC(C)C)N(C)C(=O)[C@@H](CC(C)C)N(C)C(=O)[C@H](C)NC(=O)[C@@H](C)NC(=O)[C@@H](CC(C)C)N(C)C(=O)[C@@H](C(C)C)NC(=O)[C@H](CC(C)C)N(C)C(=O)[C@@H](C)N(C)C1=O [Compound 11, [(2S,3R,4S)-3-Hydroxy-4-methyl-2-(methylamino)-7-(pyridin-3-yl)-heptanoic acid]^1 [(R)-methyl-Sar]^3 cyclosporin A]		2500		5.6	50 to 75 (≈ 64.1 to 96.1 µg/mL)
CC[C@H]1NC(=O)[C@@H]([C@H](O)[C@H](C)CCCc2ccccn2)N(C)C(=O)[C@@H](C(C)C)N(C)C(=O)[C@@H](CC(C)C)N(C)C(=O)[C@@H](CC(C)C)N(C)C(=O)[C@H](C)NC(=O)[C@@H](C)NC(=O)[C@@H](CC(C)C)N(C)C(=O)[C@@H](C(C)C)NC(=O)[C@H](CC(C)C)N(C)C(=O)[C@@H](C)N(C)C1=O [Compound 12, [(2S,3R,4R)-3-Hydroxy-4-methyl-2-(methylamino)-7-(pyridin-2-yl)-heptanoic acid]^1 [(R)-methyl-Sar]^3 cyclosporin A]		1400		3.8	50 to 75 (≈ 64.1 to 96.1 µg/mL)
CC[C@H]1NC(=O)[C@@H]([C@H](O)[C@H](C)CCCc2csc(C)n2)N(C)C(=O)[C@@H](C(C)C)N(C)C(=O)[C@@H](CC(C)C)N(C)C(=O)[C@@H](CC(C)C)N(C)C(=O)[C@H](C)NC(=O)[C@@H](C)NC(=O)[C@@H](CC(C)C)N(C)C(=O)[C@@H](C(C)C)NC(=O)[C@H](CC(C)C)N(C)C(=O)[C@@H](C)N(C)C1=O [Compound 13, [(2S,3R,4R)-3-Hydroxy-4-methyl-2-(methylamino)-7-(2-methyl-thiazol-4-yl)-heptanoic acid]^1 [(R)-methyl-Sar]^3 cyclosporin A]		1450		3.2	25 to 50 (≈ 32.5 to 65.1 µg/mL)
CC[C@H]1NC(=O)[C@@H]([C@H](O)[C@H](C)CCCc2ccncc2)N(C)C(=O)[C@@H](C(C)C)N(C)C(=O)[C@@H](CC(C)C)N(C)C(=O)[C@@H](CC(C)C)N(C)C(=O)[C@H](C)NC(=O)[C@@H](C)NC(=O)[C@@H](CC(C)C)N(C)C(=O)[C@@H](C(C)C)NC(=O)[C@H](CC(C)C)N(C)C(=O)[C@@H](C)N(C)C1=O [Compound 15, [(2S,3R,4R)-3-Hydroxy-4-methyl-2-(methylamino)-7-(pyridin-4-yl)-heptanoic acid]^1 [(R)-methyl-Sar]^3 cyclosporin A]		1600		2.5	50 to 75 (≈ 64.1 to 96.1 µg/mL)
